In data set [1] the test system is HCoV-229E. Description: High-content screen of GSK3β-focused library in HCoV-229E infected Huh-7.5.1 cells (intracellular dsRNA). In kind it is cell-based, human coronavirus 229E (HCoV-229E). As to conditions: Human coronavirus 229E, single dose of 10 μM, Z′ 0.7.
The subject of the next data set is Huh-7.5.1 cells. As to conditions: single dose of 10 μM.
Data set [2] concerns SARS-CoV-2. Description: Viral titer released from 48-hour SARS-CoV-2 infected Calu-3 cells. Conditions: 48 hours after infection, 100 μM. Format: cell-based.
Data set [3] deals with SARS-CoV-2. The data set can be described thus: Dose-response inhibition in three SARS-CoV-2 infected immortalized cell lines (Huh-7.5.1, Caco-2, Calu-3). Format: cell-based. Conditions: Severe acute respiratory syndrome coronavirus 2; Huh-7.5.1, Caco-2 and Calu-3 cells; read-out: ED50 in all investigated cell lines.
Data set [4] deals with HCoV-229E. Format: cell-based, human coronavirus 229E (HCoV-229E).
The test system of data set [5] is SARS-CoV-2 Spike S1 protein expression. In kind it is cell-based.
The subject of data set [6] is SARS-CoV-2. Description: High-content screen of GSK3β-focused library in SARS-CoV-2 infected Huh-7.5.1 cells (dsRNA or nucleocapsid). As to conditions: Severe acute respiratory syndrome coronavirus 2, single dose of 10 μM, Huh-7.5.1 cells. In kind it is cell-based.
Data set [7] deals with SARS-CoV-2. The data set can be described thus: SARS-CoV-2 infected primary donor-derived colon organoids, intracellular N protein. In kind it is cell-based. As to conditions: donor intestinal organoids monolayer, 72-hours post infection, dose-dependent.
A further data set is described as follows: in vitro. Conditions: human.
Data set [8] has as its system HCoV-229E. Description: Dose-response of HCoV-229E viral load (dsRNA) in Huh-7.5.1 cells. In kind it is cell-based, human coronavirus 229E (HCoV-229E). As to conditions: Human coronavirus 229E, read-out: ED50 (HCoV-229E).
For data set [9], the system named is SARS-CoV-2. The data set can be described thus: Dose-response of SARS-CoV-2 viral load (intracellular N protein) in Huh-7.5.1 cells. In kind it is cell-based.
The next data set concerns the target T1, casein kinase 1-delta (Homo sapiens, UniProt P48730).
T1 construct: GST; purchased SignalChem C65-10G
Description: In vitro phosphorylation of nucleocapsid peptides, ADP-Glo, CK1d. In kind it is biochemical. Conditions: peptide ~250 μM, 250 μM ATP, 30 min at 30° C.; duplicate measurements.

In data set [10] the target is T2, glycogen synthase kinase-3-beta (Homo sapiens, UniProt P49841).
T2 construct: GST; purchased SignalChem Go9-10G
T2 sequence (P49841 whole entry): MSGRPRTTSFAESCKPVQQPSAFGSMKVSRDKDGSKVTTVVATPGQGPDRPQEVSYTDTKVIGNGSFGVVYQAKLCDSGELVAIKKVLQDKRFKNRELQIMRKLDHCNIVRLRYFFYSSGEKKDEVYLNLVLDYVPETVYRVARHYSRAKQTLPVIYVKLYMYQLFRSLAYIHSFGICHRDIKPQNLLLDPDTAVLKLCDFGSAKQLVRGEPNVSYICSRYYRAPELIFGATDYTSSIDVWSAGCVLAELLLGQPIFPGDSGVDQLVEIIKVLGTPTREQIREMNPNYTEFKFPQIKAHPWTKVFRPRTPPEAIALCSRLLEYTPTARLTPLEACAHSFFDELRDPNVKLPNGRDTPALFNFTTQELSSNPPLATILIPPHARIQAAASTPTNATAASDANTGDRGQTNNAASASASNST
The data set can be described thus: In vitro phosphorylation of nucleocapsid peptides, ADP-Glo, GSK3b. Format: biochemical. Conditions: for Relative Phosphorylation to No Kinase Control, GSK3b: Mean ± S.Dev. (n = 3), no kinase control = 100; for Relative Phosphorylation to Autophosphorylation Control (set at 100), GSK3b: peptide ~250 μM, 250 μM ATP, 30 min at 30° C., duplicate measurements. On the technique in general: ADP-Glo turns the ADP formed in a reaction into a luminescent signal.

For data set [11], the target named is T3, casein kinase 1-gamma-1 (CK1γ1) (Homo sapiens, UniProt Q9HCP0).
T3 construct: GST; purchased SignalChem C68-11G
T3 sequence (Q9HCP0 whole entry): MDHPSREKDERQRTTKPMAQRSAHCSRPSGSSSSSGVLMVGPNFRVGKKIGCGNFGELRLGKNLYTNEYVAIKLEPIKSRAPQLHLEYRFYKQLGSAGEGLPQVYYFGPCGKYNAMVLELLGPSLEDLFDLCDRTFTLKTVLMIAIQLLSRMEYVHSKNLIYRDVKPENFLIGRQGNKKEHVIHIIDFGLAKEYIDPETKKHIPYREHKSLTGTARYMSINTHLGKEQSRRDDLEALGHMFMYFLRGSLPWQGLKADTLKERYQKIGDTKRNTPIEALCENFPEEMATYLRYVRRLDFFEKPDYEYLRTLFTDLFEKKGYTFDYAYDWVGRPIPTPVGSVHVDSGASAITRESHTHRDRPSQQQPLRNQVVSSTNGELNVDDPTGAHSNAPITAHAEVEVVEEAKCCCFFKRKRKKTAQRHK
The data set can be described thus: In vitro phosphorylation of nucleocapsid peptides, ADP-Glo, CK1g1. Format: biochemical. As to conditions: peptide ~250 μM, 250 μM ATP, 30 min at 30° C.; duplicate measurements.

The target in data set [12] is T4, protein kinase C-alpha (PKC α) (Homo sapiens, UniProt P17252).
T4 construct: GST; purchased SignalChem P61-18G
The data set can be described thus: In vitro phosphorylation of nucleocapsid peptides, ADP-Glo, PKCa. Conditions: Mean ± S.Dev. (n = 3); no kinase control = 100. Format: biochemical.

In data set [13] the target is cyclin-dependent kinase 2/cyclin A2 (CDK2/A2) (Homo sapiens, UniProt P24941). Description: In vitro phosphorylation of nucleocapsid peptides, ADP-Glo, CDK2/cyclin A2. In kind it is biochemical. As to conditions: peptide ~250 μM, 250 μM ATP, 30 min at 30° C.; duplicate measurements.
In data set [14] the target is cAMP-dependent protein kinase catalytic subunit-alpha (PKACa) (Homo sapiens, UniProt P17612). Description: In vitro phosphorylation of nucleocapsid peptides, ADP-Glo, PKACa. In kind it is biochemical. Conditions: peptide ~250 μM, 250 μM ATP, 30 min at 30° C.; duplicate measurements.
The target in data set [15] is T5, extracellularly-regulated kinase-1 (ERK1) (Homo sapiens, UniProt P27361).
T5 construct: GST; purchased SignalChem M29-10G
T5 sequence (P27361 whole entry): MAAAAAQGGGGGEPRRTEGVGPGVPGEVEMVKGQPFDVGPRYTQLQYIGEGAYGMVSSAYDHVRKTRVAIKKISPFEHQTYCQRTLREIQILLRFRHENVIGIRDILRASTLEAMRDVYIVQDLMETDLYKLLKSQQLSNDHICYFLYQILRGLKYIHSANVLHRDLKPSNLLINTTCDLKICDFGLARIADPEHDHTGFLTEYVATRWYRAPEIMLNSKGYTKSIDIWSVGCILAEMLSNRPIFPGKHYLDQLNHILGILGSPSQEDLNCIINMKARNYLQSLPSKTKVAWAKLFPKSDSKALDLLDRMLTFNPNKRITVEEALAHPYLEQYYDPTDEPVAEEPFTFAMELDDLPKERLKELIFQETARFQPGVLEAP
Description: In vitro phosphorylation of nucleocapsid peptides, ADP-Glo, ERK1. Format: biochemical. Conditions: peptide ~250 μM, 250 μM ATP, 30 min at 30° C.; duplicate measurements.

The next data set deals with PKCa + GSK3b. Description: In vitro phosphorylation of nucleocapsid peptides, ADP-Glo, PKCa + GSK3b combined. Format: biochemical, human. As to conditions: Mean ± S.Dev. (n = 3); no kinase control = 100.

“Also recorded” adds a separate entry of the source. Read-outs that look alike come from different tables or passages of the source. Where no end group is shown, it is not given here. [ ]: non-standard residue; d: D form. pS = N[C@@H](COP(=O)(O)O)C(=O)O

The values below come from patent US20250042887A1, “GLYCOGEN SYNTHASE KINASE-3 (GSK3) INHIBITOR COMPOUNDS FOR USE AS ANTIVIRAL AGENTS” (priority 2021, published 2025).

As usually defined, the inhibition is the percentage by which the read-out fell short of the control.

T1 sequence (P48730 whole entry): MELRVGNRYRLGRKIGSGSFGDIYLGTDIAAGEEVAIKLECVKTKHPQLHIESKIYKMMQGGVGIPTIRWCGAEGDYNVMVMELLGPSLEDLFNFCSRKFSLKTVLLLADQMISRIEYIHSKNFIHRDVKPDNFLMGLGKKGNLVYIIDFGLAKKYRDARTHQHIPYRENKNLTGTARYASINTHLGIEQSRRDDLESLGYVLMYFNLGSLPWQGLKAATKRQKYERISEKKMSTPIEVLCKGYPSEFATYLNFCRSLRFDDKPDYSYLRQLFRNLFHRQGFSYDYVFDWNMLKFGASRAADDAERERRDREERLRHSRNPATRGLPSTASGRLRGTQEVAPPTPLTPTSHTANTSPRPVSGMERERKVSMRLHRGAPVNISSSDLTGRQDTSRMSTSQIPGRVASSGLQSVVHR

Turning to `CSc1ccc(-n2cnc3ccc(-c4nnc(CCc5cccc(C#N)c5)o4)cc32)cc1` [Compound P-0717632], the inhibition at 10 µM worked out at 97.6% in the data set on HCoV-229E [1]; 68.2% in the data set on SARS-CoV-2 [6] (Z′ 0.3, read-out: SARS-CoV-2 inhibition (% dsRNA)); 79.3% with SARS-CoV-2 [6] (average of screens 1 and 2, read-out: Average SARS-CoV-2 Nucleocapsid inhibition); 75.2% with SARS-CoV-2 [6] (screen 1, Z′ 0.7, read-out: SARS-CoV-2 inhibition (% Nucleocapsid) 1); 83.3% in the data set on SARS-CoV-2 [6] (screen 2, Z′ 0.5, read-out: SARS-CoV-2 inhibition (% Nucleocapsid) 2). Also, in the data set with Huh-7.5.1 cells, the “Average cell loss (%)” value is listed as 24.4%. Moreover, the “reduction of release of infective particles” value in the data set on SARS-CoV-2 [2] came to 2 log. Moreover, the EC50 with SARS-CoV-2 [3] is 4 to 7 µM; with HCoV-229E [8] it was approximately 3 µM; in the data set with SARS-CoV-2 [9] (Severe acute respiratory syndrome coronavirus 2, Huh-7.5.1, Huh-7.5.1 cells, intracellular N protein, read-out: ED50 (SARS-CoV-2)) it was approximately 3 µM. Further, the “average Combination Index (CI)” value in the data set on HCoV-229E [4] worked out at 0.7. In data set [5], the “Spike S1 protein expression” value is “blocked; also recorded: reduced”. In addition, the “effect on intracellular N protein levels in organoids” value in the data set on SARS-CoV-2 [7] is “greatly decrease intracellular N protein levels”. In addition, the CC50 in “in vitro” is more than 100 µM. In the data set on SARS-CoV-2 [9] (Huh 7.5.1 cells), the “SARS-CoV-2 Selectivity Index SI (CC50 over ED50)” value is 68. The same compound registered an ED80 in the data set with SARS-CoV-2 [9] (SARS-CoV-2 infected Huh-7.5.1 cells) of 10 µM.
“RNSTPGSSRGT(pS)PAR (RNSTPGSSRGT[pS]PAR) [SCV2-N [195-209]-pS206, synthetic peptide modeled after SARS-CoV-2 nucleocapsid protein phosphorylation sites, pre-phosphorylated at S206]”: the “Relative Phosphorylation to Autophosphorylation Control (set at 100), CK1d” value with casein kinase 1-delta is recorded as 105. Besides, in data set [10], the “Relative Phosphorylation to No Kinase Control, GSK3b” value is on record as 24,082 ± 381 and the “Relative Phosphorylation to Autophosphorylation Control (set at 100), GSK3b” value came to 1068. For the same compound, in [11], the “Relative Phosphorylation to Autophosphorylation Control (set at 100), CK1g1” value came out at 105. Moreover, in data set [12], the “Relative Phosphorylation to No Kinase Control, PKCa” value is 1531 ± 47. In data set [13], the “Relative Phosphorylation to Autophosphorylation Control (set at 100), CDK2 + Cyclin A2” value turned out to be 100. Besides, the “Relative Phosphorylation to Autophosphorylation Control (set at 100), PKACa” value in [14] turned out to be 205. For the same compound, the “Relative Phosphorylation to Autophosphorylation Control (set at 100), ERK1” value in [15] is on record as 100.
On to “RNSTPGSSRGTSPAR [SCV2-N [195-209], synthetic peptide modeled after SARS-CoV-2 nucleocapsid protein phosphorylation sites]”, for which the “Relative Phosphorylation to Autophosphorylation Control (set at 100), CK1d” value in the data set with casein kinase 1-delta was determined as 101. Also, in [10], the “Relative Phosphorylation to No Kinase Control, GSK3b” value was determined as 3291 ± 57 and the “Relative Phosphorylation to Autophosphorylation Control (set at 100), GSK3b” value was 137. For the same compound, the “Relative Phosphorylation to No Kinase Control, PKCa + GSK3b” value with PKCa + GSK3b is on record as 4262 ± 27. The “Relative Phosphorylation to Autophosphorylation Control (set at 100), CK1g1” value in [11] was 104. Also, the “Relative Phosphorylation to No Kinase Control, PKCa” value in [12] amounted to 3301 ± 114. Further, the “Relative Phosphorylation to Autophosphorylation Control (set at 100), CDK2 + Cyclin A2” value in data set [13] is given as 104. In addition, the “Relative Phosphorylation to Autophosphorylation Control (set at 100), PKACa” value in data set [14] worked out at 151. The “Relative Phosphorylation to Autophosphorylation Control (set at 100), ERK1” value in data set [15] is reported as 102.
